# Test results taken from patent US20050119285A1, “Treatment of neurological disorders related to rapid eye movement (REM) sleep disturbances with NPY Y5 receptor antagonists” (Pfizer Inc, priority 2003, published 2005).
# Marks after values point to notes of the source that are not given here.
# Tested on: adult, male Wistar rats
# Assay: Sleep measurement by EEG in rats (in vivo sleep study)
# Set-up: species or system rat
# Details: for Maximal change in REM sleep: cumulative time in REM sleep compared to vehicle controls, first 24 hours after dose
# Experimental: Sleep measurement by EEG: For the EEG sleep measurements, adult, male Wistar rats were anesthetized and surgically implanted with a cranial implant for chronic electro-encephalogram (EEG) and electromyogram (EMG) recording. At least three weeks were allowed for the animal to recover from surgery. Food and water were available ad libitum and the ambient temperature was 24±1° C. A 24-hr light-dark cycle (LD 12:12) was maintained throughout the study using fluorescent light. Light intensity averaged 35-40 lux at mid-level inside the cage. Animals were undisturbed for two days before and after each treatment. Sleep and wakefulness were determined using a microcomputer-based sleep-wake and physiological monitoring system. The system monitored amplified EEG (×10,000, bandpass 1-30 Hz; digitization rate 100 Hz, integrated EMG (bandpass 10-100 Hz, RMS integration), and telemetered body temperature and non-specific locomotor activity and drinking activity, from 16 rodents simultaneously. Arousal states were classified on-line as NREM sleep, REM sleep, wake, or theta-domihated wake every 10 seconds using EEG period and amplitude feature extraction and ranked membership algorithms. Individually taught EEG-arousal-state templates and EMG criteria differentiated REM sleep from theta-dominated wake. Drinking and locomotor activity were automatically recorded as discrete events every 10 seconds, and body temperature was recorded each minute. Data quality was assured by frequent on-line inspection of the EEG and EMG signals.
# Drug Treatment: A NPY Y1 receptor antagonist was administered at 5, 10, 20 or 40 mg/kg in 0.25% methylcellulose vehicle. The NPY Y5 receptor antagonist of Formula la was administered at 5, 10 or 40 mg/kg and the NPY Y5 receptor antagonist of Formula IIa was administered at 10 and 40 mg/kg (both in 32% hydroxypropyl-betacyclodextrin vehicle). Drugs and vehicles were administered by oral gavage. Rats were randomly assigned to receive treatments in […]. The recording duration for the bioassay was 30 hours before and after treatment. At least 7 days “washout” elapsed between each treatment.
# Variables recorded by EEG sleep-wake variables included NREM, REM, total sleep, and duration of sleep and wake bouts and were defined and computed as follows: • Wakefulness, NREM sleep, and REM sleep: percent time in state per hour or per 5 minute bin. • Cumulation of total sleep, NREM sleep, REM sleep, locomotor activity, and drink activity: post-treatment accumulated change over baseline. Change—from-baseline scores were computed by subtracting from the post-treatment value the baseline value at the corresponding circadian time. The change-from-baseline scores were then cumulated in hourly bins, and these values were plotted. • Sleep, wakefulness, and REM sleep bouts: The longest bout and the average bout of uninterrupted sleep each hour, measured in minutes. “Interruption” is defined as 3 or more consecutive 10 sec epochs of wakefulness. An analogous quantification is carried out for bouts of wakefulness and REM sleep. […] Pre-clinical measures of sleep bout length are also strong predictors of soporific efficacy in humans. • Locomotor activity: counts per hour or counts per 5 minute bin. • Locomotor activity intensity: locomotor activity counts per minute of EEG-defined wakefulness. This variate allows an assessment of locomotor activity that is independent of the amount of time awake, thus, it may be used to quantify the specificity of a wake- or sleep-promoting effect (Edgar et al. 1997).
# Statistical Analysis—Mixed Model: Treatment effects were analyzed by a mixed model for repeated measures data. Mixed models were performed comparing each active-treatment with vehicle. For all models analysis was based on post-treatment hours with each hour adjusted for the corresponding baseline hour. Adjusting for baseline takes into account any differences between groups during baseline. […]
# [1] = 5, 10 and 40 mg/kg, oral gavage
structure (smiles),measurement,setting,value
O=C1OC2(CCN(C(=O)Nc3ccc(C(F)(F)F)cn3)CC2)c2ccccc21 [Formula Ia],Effect on NREM sleep,[1],increased NPEM sleep
same,Effect on REM sleep,[1],significantly reduced REM sleep in a dose-related manner
same,Effect on sleep continuity (sleep bout length),[1],increased
same,Persistence of REM sleep inhibiting and NREM sleep promoting effects,"after 40 mg/kg, oral gavage",at least 48 hours
same,REM sleep inhibiting and NREM sleep promoting effects still observed after dosing,"after 40 mg/kg, oral gavage",≥ 4.5 days
same,Maximal change in REM sleep,"dose 5 (mg/kg), oral gavage",−23.8* minutes
same,Maximal change in REM sleep,"dose 10 (mg/kg), oral gavage",−42.6* minutes
same,Maximal change in REM sleep,"dose 40 (mg/kg), oral gavage",−74.4* minutes
same,Effect on sleep (REM and NREM) in a laboratory animal,"summary statement, no dose given",affected sleep (REM and NREM)
